Each structure is given as a SMILES string. “And” between values parts separate entries of the source, which are not always exact repeats. Equal values may be shown once. Where a name gives a salt, the structure may show the parent alone. Read-outs that look alike come from different tables or passages of the source.

One assay relates to A549. The experiment in a line: In vitro tumor cell proliferation, A549. Format: cell-based, human. Particulars: many values given with an undefined *, read-out: In vitro Tumor Cell Proliferation (IC50, μM) Lung A549. The procedure, abridged: (§1)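 Tumor cells were seeded overnight at 37° C, then exposed to drug diluted in culture medium for 3 days, refed with fresh drug-containing medium and kept 4 more days. Cells were fixed with 10% trichloroacetic acid and stained with 0.4% sulforhodamine B; alternatively, CyQUANT read proliferation after 3 days' drug exposure.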

In a further assay the target is T1, cdk4/cyclin D1 (Homo sapiens, UniProt P11802).
T1 construct: made in house; host or cells: Sf9 insect cells (Bac-to-Bac baculovirus, pFastBac)
T1 sequence (P11802 whole entry): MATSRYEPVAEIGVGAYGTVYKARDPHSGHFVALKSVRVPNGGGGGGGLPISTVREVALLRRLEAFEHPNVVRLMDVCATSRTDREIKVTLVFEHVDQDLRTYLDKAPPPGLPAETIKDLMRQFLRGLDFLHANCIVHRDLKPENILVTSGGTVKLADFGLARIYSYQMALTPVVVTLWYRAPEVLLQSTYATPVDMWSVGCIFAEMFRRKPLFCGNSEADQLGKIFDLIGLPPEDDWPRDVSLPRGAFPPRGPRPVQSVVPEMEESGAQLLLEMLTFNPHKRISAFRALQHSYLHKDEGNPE
T1 sequence (P24385 whole entry partner): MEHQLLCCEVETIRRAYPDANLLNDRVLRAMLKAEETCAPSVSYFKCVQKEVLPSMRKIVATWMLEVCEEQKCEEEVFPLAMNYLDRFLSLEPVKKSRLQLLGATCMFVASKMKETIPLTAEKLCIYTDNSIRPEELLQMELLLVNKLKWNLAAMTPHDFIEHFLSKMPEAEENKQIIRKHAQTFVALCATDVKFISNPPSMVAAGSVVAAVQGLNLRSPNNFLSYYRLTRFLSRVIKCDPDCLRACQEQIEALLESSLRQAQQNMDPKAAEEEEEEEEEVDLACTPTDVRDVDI
The experiment in a line: Cyclin-dependent Kinase 4 Assay (cdk4/cyclin D1, GST-Rb substrate). The class given is biochemical. Particulars: cdk4/cyclin D1 insect cell lysate, 10 μM ATP, 30 min at 37° C., several values = separate determinations, read-out: CDK4 Inhibition IC50. An outline of the steps: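 Insect-cell lysate of coexpressed cdk4/cyclin D1 (0.1 μg) acts on GST-Rb (0.5 μg) bound to glutathione-Sepharose, in 50 mM HEPES pH 7.5, 10 mM MgCl2, 1 mM EGTA. Reaction runs 30 min at 37 °C, then is stopped by filtration and TNEN washes. Rb phosphorylation read by scintillation counting; IC50 derived.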

A further assay deals with DU145. The experiment in a line: In vitro tumor cell proliferation, DU145. Format: cell-based, human. Particulars: many values given with an undefined *, read-out: In vitro Tumor Cell Proliferation (IC50, μM) Prostate DU145. An outline of the steps:
as §1

The next assay has as its system HT-29. The experiment in a line: In vitro tumor cell proliferation, HT-29. The class given is cell-based, human. Particulars: many values given with an undefined *, read-out: In vitro Tumor Cell Proliferation (IC50, μM) Colon HT-29. The procedure, abridged:
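HT-29 cells seeded overnight at 37° C, then exposed to drug for 3 days, refed with fresh drug-containing medium for 4 more days. Proliferation read by sulforhodamine B staining after TCA fixation; alternatively by CyQUANT after freezing plates at −80° C following 3 days' drug exposure.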

The test system of a further assay is Colo-205. The assay can be described thus: In vitro tumor cell proliferation, Colo-205. The class given is cell-based. Particulars: values given with an undefined *, read-out: In vitro Tumor Cell Proliferation (IC50, μM) Colon Colo-205. The procedure, abridged: as §1
The test system of a further assay is PC-3. The experiment in a line: In vitro tumor cell proliferation, PC-3. Format: cell-based, human. Particulars: many values given with an undefined *, read-out: In vitro Tumor Cell Proliferation (IC50, μM) Prostate PC-3. The procedure, abridged:
as §1

For another assay, the target named is T2, cdk2/cyclin E (Homo sapiens, UniProt P24941).
T2 construct: made in house; host or cells: insect cells (baculovirus co-infection)
The experiment in a line: Cyclin-Dependent Kinase 2 Assay (cdk2/cyclin E, GST-Rb substrate). Particulars: recombinant cdk2/cyclin E, 10 μM ATP, 30 min at 30° C., several values in a cell = separate determinations, read-out: CDK-2 Inhibition IC50. The class given is biochemical. As for the experimental part:
Substrate: GST-Rb as described above for cdk4/cyclin D1
Assay conditions for cdk2/cyclin E were identical to those for cdk4/cyclin D1 including the substrate. The concentration of recombinant cdk2/cyclin E in the assay was 0.1 μg per 100 μl assay. Incubation was for 30 min at 30° C.

A further assay deals with DMS-114. The experiment in a line: In vitro tumor cell proliferation, DMS-114. The class given is cell-based, human. Particulars: many values given with an undefined *, read-out: In vitro Tumor Cell Proliferation (IC50, μM) Lung DMS-114. The procedure, abridged: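 Human small cell lung carcinoma DMS-114 cells plated overnight, then drug-treated for 3 days, medium and drug renewed, and incubated 4 more days. Growth read by sulforhodamine B staining after TCA fixation; alternatively by CyQUANT after 3 days' drug exposure and freezing at −80 °C.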

The test system of the next assay is MDA-MB-231. The assay can be described thus: In vitro tumor cell proliferation, MDA-MB-231. The class given is cell-based, human. Particulars: sulforhodamine B or CyQUANT assay, many values given with an undefined *, read-out: In vitro Tumor Cell Proliferation (IC50, μM) Breast MDA-MB-231. An outline of the steps: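 Cells plated overnight at 37 °C, then exposed to drug for 3 days, refed with fresh drug and incubated 4 more days. Read-out by sulforhodamine B staining after TCA fixation; alternatively, CyQUANT after 3-day drug exposure and freezing at −80 °C.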

Another assay deals with MDA-MB-435. The assay can be described thus: In vitro tumor cell proliferation, MDA-MB-435. Particulars: values given with an undefined *, read-out: In vitro Tumor Cell Proliferation (IC50, μM) Breast MDA-MB-435. Format: cell-based. The procedure, abridged:
as §1

[1] abbreviates: Homo sapiens, COLO 205, Colo-205.
Where [2] appears, read: Homo sapiens, MDA-MB-231, MDA-MB-231.
Setting [3] is: Homo sapiens, MDA-MB-435, MDA-MB-435.

For `N[C@H]1CC[C@H](Nc2nc(NNc3ccccc3F)c3ncn(C4CCCC4)c3n2)CC1` [Example 11, 2-[Trans-(4-aminocyclohexyl)amino]-6-[2-fluorophenylhydrazino]-9-cyclopentylpurine dihydrochloride], the IC50 was 3.4 µM in the assay with A549 (A549, dihydrochloride); 4.5 µM with A549 (Homo sapiens, A549, A549); 8900 nM and 5800 nM at cdk4/cyclin D1; 4.7 µM in the assay on DU145 (DU145, dihydrochloride); 4.6 µM with DU145 (Homo sapiens, DU-145, DU145); 7.8 µM in the assay on HT-29 (HT-29, dihydrochloride). In addition, the IC50 in the assay with HT-29 (Homo sapiens, HT-29, HT-29) was found to be 6.5 µM; in the assay with Colo-205 (Colo-205, dihydrochloride) it was 5.2 µM; in the assay with Colo-205 (setting [1]), 6.5 µM; in the assay on PC-3 (Homo sapiens, PC-3, PC-3) it was 3.6 µM; on cdk2/cyclin E, 100 nM; with DMS-114 (DMS-114, dihydrochloride), 4.9 µM. Also, the IC50 was found to be 6.8 µM in the assay on DMS-114 (Homo sapiens, DMS-114, DMS-114); 5 µM in the assay with MDA-MB-231 (setting [2]); 6.7 µM in the assay on MDA-MB-231 (MDA-MB-231, dihydrochloride); 10 µM in the assay with MDA-MB-435 (MDA-MB-435, dihydrochloride).
In the case of `N[C@H]1CC[C@H](Nc2nc(Nc3ccc(OC(F)(F)F)cc3)c3ncn(C4CCCC4)c3n2)CC1` [Example 5, 2-[Trans-(4-aminocyclohexyl)amino]-6-[(4-trifluoromethoxy)phenylamino]-9-cyclopentylpurine dihydrochloride], the IC50 in the assay with A549 (A549, dihydrochloride) is 0.53 µM; in the assay on A549 (Homo sapiens, A549, A549), 0.35 µM; on cdk4/cyclin D1, 400 nM and 700 nM; in the assay with DU145 (DU145, dihydrochloride), 0.7 µM; in the assay on DU145 (Homo sapiens, DU-145, DU145), 0.56 µM; in the assay with HT-29 (HT-29, dihydrochloride), 1.1 µM. The IC50 was found to be 1 µM in the assay with HT-29 (Homo sapiens, HT-29, HT-29); 1.2 µM in the assay on Colo-205 (Colo-205, dihydrochloride); 1 µM with Colo-205 (setting [1]); 1.1 µM in the assay on PC-3 (Homo sapiens, PC-3, PC-3); 0.7 µM with PC-3 (PC-3, dihydrochloride); 230 nM at cdk2/cyclin E. Also, the IC50 was 0.47 µM with DMS-114 (Homo sapiens, DMS-114, DMS-114); 0.78 µM with MDA-MB-231 (setting [2]); 0.87 µM in the assay with MDA-MB-231 (MDA-MB-231, dihydrochloride); 1.3 µM in the assay on MDA-MB-435 (setting [3]); 1.5 µM with MDA-MB-435 (MDA-MB-435, dihydrochloride).
As for `N[C@H]1CC[C@H](Nc2nc(NC3CCN(Cc4ccc(F)cc4Cl)CC3)c3ncn(C4CCCC4)c3n2)CC1` [Example 147-t, 2-[Trans-(4-aminocyclohexyl)amino]-6-[4-[1-(2-chloro-4-fluorobenzyl)]piperidinylamino]-9-cyclopentylpurine trihydrochloride], the IC50 was 0.28 µM in the assay with A549 (A549, trihydrochloride); 0.3 µM with A549 (Homo sapiens, A549, A549); 2200 nM and 1700 nM at cdk4/cyclin D1; 0.38 µM with DU145 (DU145, trihydrochloride); 0.33 µM with DU145 (Homo sapiens, DU-145, DU145); 0.48 µM in the assay with HT-29 (HT-29, trihydrochloride). Besides, the IC50 in the assay with HT-29 (Homo sapiens, HT-29, HT-29) was 0.42 µM; in the assay on Colo-205 (Colo-205, trihydrochloride), 0.36 µM; with PC-3 (Homo sapiens, PC-3, PC-3) it was 0.37 µM; with PC-3 (PC-3, trihydrochloride) it was 0.45 µM; at cdk2/cyclin E it was 250 nM and 160 nM and 340 nM; in the assay with DMS-114 (DMS-114, trihydrochloride), 0.46 µM. Moreover, the IC50 with DMS-114 (Homo sapiens, DMS-114, DMS-114) was determined as 0.71 µM; in the assay on MDA-MB-231 (setting [2]), 0.37 µM; in the assay on MDA-MB-435 (setting [3]) it was 0.41 µM; with MDA-MB-435 (MDA-MB-435, trihydrochloride) it was 0.69 µM.
In the case of `N[C@H]1CC[C@H](Nc2nc(NC3CCN(Cc4ccc(F)c(F)c4)CC3)c3ncn(C4CCCC4)c3n2)CC1` [Example 147-u, 2-[Trans-(4-aminocyclohexyl)amino]-6-[4-[1-(3,4-difluorobenzyl)]piperidinylamino]-9-cyclopentylpurine trihydrochloride], the IC50 in the assay on A549 (A549, trihydrochloride) was 0.19 µM; in the assay with A549 (Homo sapiens, A549, A549) it was 0.27 µM; at cdk4/cyclin D1, 2800 nM and 2600 nM; in the assay on DU145 (DU145, trihydrochloride), 0.28 µM; with DU145 (Homo sapiens, DU-145, DU145), 0.38 µM; in the assay with HT-29 (HT-29, trihydrochloride), 0.33 µM. Also, the IC50 in the assay with HT-29 (Homo sapiens, HT-29, HT-29) was 0.41 µM; in the assay on Colo-205 (Colo-205, trihydrochloride) it was 0.22 µM; in the assay on Colo-205 (setting [1]), 0.28 µM; in the assay on PC-3 (Homo sapiens, PC-3, PC-3), 0.35 µM; with PC-3 (PC-3, trihydrochloride), 0.43 µM; at cdk2/cyclin E, 150 nM and 110 nM. The IC50 in the assay with DMS-114 (DMS-114, trihydrochloride) was found to be 0.35 µM; in the assay on DMS-114 (Homo sapiens, DMS-114, DMS-114) it was 0.62 µM; in the assay with MDA-MB-231 (setting [2]), 0.33 µM; in the assay with MDA-MB-231 (MDA-MB-231, trihydrochloride), 0.36 µM; in the assay with MDA-MB-435 (setting [3]) it was 0.47 µM; in the assay with MDA-MB-435 (MDA-MB-435, trihydrochloride), 0.48 µM.
Consider `N[C@H]1CC[C@H](Nc2nc(NC3CCN(Cc4cc(C(F)(F)F)cc(C(F)(F)F)c4)CC3)c3ncn(C4CCCC4)c3n2)CC1` [Example 147-d, 2-[Trans-(4-aminocyclohexyl)amino]-6-[4-[1-[3,5-bis(trifluoromethyl)benzyl]]piperidinylamino]-9-cyclopentylpurine trihydrochloride], for which the IC50 in the assay with A549 (A549, trihydrochloride) was 0.23 µM and 0.25 µM; on cdk4/cyclin D1, 64000 nM; with DU145 (DU145, trihydrochloride) it was 0.69 µM and 0.58 µM; in the assay on HT-29 (HT-29, trihydrochloride), 0.44 µM and 0.34 µM; in the assay on Colo-205 (Colo-205, trihydrochloride), 0.38 µM and 0.52 µM; with PC-3 (PC-3), 0.66 µM. In addition, the IC50 on cdk2/cyclin E (trihydrochloride) is 890 nM and 530 nM and 750 nM; in the assay on DMS-114 (DMS-114, trihydrochloride), 0.34 µM and 0.36 µM; in the assay on MDA-MB-231 (MDA-MB-231, trihydrochloride), 0.47 µM and 0.42 µM; in the assay with MDA-MB-435 (MDA-MB-435, trihydrochloride), 0.69 µM and 0.94 µM.
For `CCCCCCCCCCCCNc1nc(N[C@H]2CC[C@H](N)CC2)nc2c1ncn2C1CCCC1` [Example 36, 2-[Trans-(4-aminocyclohexyl)amino]-6-(dodecylamino)-9-cyclopentylpurine dihydrochloride], the IC50 came out at 3.1 µM with A549 (A549, dihydrochloride); 5.6 µM with A549 (Homo sapiens, A549, A549); 4500 nM on cdk4/cyclin D1; 3.4 µM in the assay with DU145 (DU145, dihydrochloride); 5.4 µM in the assay on DU145 (Homo sapiens, DU-145, DU145); 4 µM with HT-29 (Homo sapiens, HT-29, HT-29). Further, the IC50 in the assay on Colo-205 (setting [1]) was 3.1 µM; with PC-3 (Homo sapiens, PC-3, PC-3) it was 3.1 µM; in the assay on PC-3 (PC-3, dihydrochloride), 3.8 µM; on cdk2/cyclin E, 520 nM; with DMS-114 (DMS-114, dihydrochloride) it was 3.1 µM; with DMS-114 (Homo sapiens, DMS-114, DMS-114), 3.6 µM. In addition, the IC50 with MDA-MB-231 (setting [2]) was found to be 3.2 µM; in the assay with MDA-MB-435 (setting [3]), 4.2 µM; in the assay on MDA-MB-435 (MDA-MB-435, dihydrochloride), 2.2 µM.

Values taken from patent publication US6479487B1, “6, 9-disubstituted 2-[trans-(4-aminocyclohexyl)amino] purines” (Aventis Pharmaceuticals Inc., priority 1998, dated 2002).
